Experiment: solvent given as SMILES
[1] = in c1ccc2c(c1)c1ccccc1n2-c1ccc(-c2ccc(-n3c4ccccc4c4ccccc43)cc2)cc1
[2] = in c1cc(-n2c3ccccc3c3ccccc32)cc(-n2c3ccccc3c3ccccc32)c1

CCOC(=O)CN1C(=O)C2=C(c3ccc(C#N)cc3)N(CC(=O)OCC)C(=O)C2=C1c1ccccc1
fluorescence lifetime (in CC#N): 5.78 ns | fluorescence lifetime (in CS(C)=O): 7.07 ns | fluorescence lifetime (in Cc1ccccc1): 4.24 ns

CC1(C)c2ccccc2N(c2ccc(-c3ccc4c(c3)C(=O)c3ccc(-c5ccc(N6c7ccccc7C(C)(C)c7ccccc76)cc5)cc3C4=O)cc2)c2ccccc21
fluorescence lifetime (in Cc1ccccc1): 4.2 ns | fluorescence lifetime [1]: 41 ns

Cc1ccc(C2=[N+]3C(=Cc4ccc(C)n4[B-]3(F)F)c3ccccc32)[nH]1
fluorescence lifetime (in ClCCl): 8.11 ns

COc1ccc2c(=O)c3c([nH]c2c1)-c1ccccc1NC3(C)C
fluorescence lifetime (in C1CCOC1): 8.25 ns | fluorescence lifetime (in CC#N): 9.16 ns | fluorescence lifetime (in CCCCO): 10.2 ns | fluorescence lifetime (in CCCO): 10.1 ns | fluorescence lifetime (in CCO): 9.74 ns | fluorescence lifetime (in CCOC(C)=O): 8.04 ns | fluorescence lifetime (in CN(C)C=O): 10.5 ns | fluorescence lifetime (in CO): 9.35 ns | fluorescence lifetime (in CS(C)=O): 11.4 ns | fluorescence lifetime (in Cc1ccccc1): 7.24 ns | fluorescence lifetime (in ClC(Cl)(Cl)Cl): 5.08 ns | fluorescence lifetime (in ClCCl): 9.46 ns | fluorescence lifetime (in O): 7.42 ns | fluorescence lifetime (in c1ccccc1): 7.52 ns

CCCCCCN1C(=O)c2cccc3c(-c4cccs4)ccc(c23)C1=O
fluorescence lifetime (in ClC(Cl)Cl): 1.92 ns

C=Cc1ccc(OC)c(OC)c1
fluorescence lifetime (in C1CCCCC1): 3.3 ns | fluorescence lifetime (in CC#N): 3.2 ns

c1cnc2c(c1)c1nc(-c3ccc(-c4nc5c6cccnc6c6ncccc6c5[nH]4)cc3)[nH]c1c1cccnc12
fluorescence lifetime (in CS(C)=O): 1.36 ns

COc1ccc(-c2oc3cccc4c5c(-c6ccc(OC)c(OC)c6)c(=N)oc6cccc(c2c34)c65)cc1OC
fluorescence lifetime (in ClC(Cl)Cl): 1.9 ns

COc1ccc2cc(-c3ccc(-c4cc5ccc(OC)cc5oc4=O)cc3)c(=O)oc2c1
fluorescence lifetime (in ClC(Cl)Cl): 1.4 ns

CC1=C(c2ccc(N(C)C)cc2)C(C)=[N+]2C1=C(c1c(-c3ccccn3)nc3ccccn13)c1c(C)cc(C)n1[B-]2(F)F
fluorescence lifetime (in ClCCl): 0.5 ns

CC(C)(C)c1ccc2c(c1)c1cc3c4cc(C(C)(C)C)ccc4c4c5c6ccc(C(C)(C)C)cc6c6cc7c8cc(C(C)(C)C)ccc8c8c2c1c(c34)c(c78)c65
fluorescence lifetime (in CCCCCC): 0.61 ns | fluorescence lifetime (in CCOCC): 0.618 ns | fluorescence lifetime (in Cc1ccccc1): 0.606 ns

COc1ccc(-c2ccc3c(c2)c2cc(-c4ccc(OC)cc4)ccc2n3-c2ccc(C(=O)c3ccc4sc5ccccc5c4c3)nc2)cc1
fluorescence lifetime [2]: 8.4 ns

Cc1cc(C)c(B(c2ccccc2N(c2ccccc2)c2ccccc2)c2c(C)cc(C)cc2C)c(C)c1
fluorescence lifetime (in Cc1ccccc1): 27 ns

Cn1c2ccc(S(=O)(=O)O)cc2c(=O)c2cc(S(=O)(=O)O)ccc21
fluorescence lifetime (in CS(C)=O): 10.6 ns | fluorescence lifetime (in O): 16.7 ns

CCN(CC)c1ccc2cc(C#N)/c(=N\C(=O)c3ccccc3)oc2c1
fluorescence lifetime (in ClCCl): 3 ns

O=C(O)CCCc1cc2ccc3cccc4ccc(c1)c2c34
fluorescence lifetime (in CO): 622 ns

Cc1cn(CCCn2cc(C)c(=O)[nH]c2=O)c(=O)nc1-n1cncn1
fluorescence lifetime (in O): 0.74 ns

O=C1/C(=C2\Nc3cc4ccc5cccc6ccc(c3C2=O)c4c56)Nc2cc3ccc4cccc5ccc(c21)c3c45
fluorescence lifetime (in C1CCOC1): 0.42 ns

COC(=O)C(NC(=O)OC(C)(C)C)c1ccc2oc(-c3cc(OC)c(OC)cc3OC)nc2c1 (stereo not drawn)
fluorescence lifetime (in CC1CCCCC1): 1.27 ns | fluorescence lifetime (in CC#N): 1.78 ns | fluorescence lifetime (in CO): 2.03 ns

CCc1c(C)[nH]c(C2=[N+]3C(=Cc4c(C)c(CC)c(/C=C/c5ccc(N(C)C)cc5)n4[B-]3(F)F)c3ccccc32)c1C
fluorescence lifetime (in ClCCl): 2.3 ns

c1ccc(N(c2ccccc2)c2c3ccccc3c(N(c3ccccc3)c3ccccc3)c3ccccc23)cc1
fluorescence lifetime (in Cc1ccccc1): 13 ns

COc1ccc(N(c2ccc(OC)cc2)c2ccc(-c3ccc4c(c3)C(=O)c3ccccc3C4=O)cc2)cc1
fluorescence lifetime (in CCCCCC): 7.04 ns | fluorescence lifetime (in Cc1ccccc1): 1.09 ns | fluorescence lifetime (in ClC(Cl)(Cl)Cl): 5.94 ns

COc1nc(Cl)nc(Nc2ccc3c4cccc5cccc(c6cccc2c63)c54)n1
fluorescence lifetime (in CCOC(C)=O): 3.5 ns | fluorescence lifetime (in CS(C)=O): 4 ns

C(/C=C/c1cc2c3c(c1)CCCN3CCC2)=C\c1ccncc1
fluorescence lifetime (in C1COCCO1): 0.25 ns | fluorescence lifetime (in CC#N): 0.57 ns

CC(=O)Nc1ccc2c3cccc4cccc(c5cccc1c52)c43
fluorescence lifetime (in CCOC(C)=O): 3.8 ns | fluorescence lifetime (in CS(C)=O): 4.5 ns

CCCCCCN1C(=O)c2cccc3c(-c4ccc(Cl)s4)ccc(c23)C1=O
fluorescence lifetime (in ClC(Cl)Cl): 0.0093 ns

CC1(C)c2ccccc2N(c2ccc(C(=CC#N)c3ccc(N4c5ccccc5C(C)(C)c5ccccc54)cc3)cc2)c2ccccc21
fluorescence lifetime (in Cc1ccccc1): 5.09 ns

CC(C)(C)c1ccc2c(c1)c1cc(C(C)(C)C)ccc1n2-c1cc(C(=O)c2ccncc2)cc(-n2c3ccc(C(C)(C)C)cc3c3cc(C(C)(C)C)ccc32)c1
fluorescence lifetime (in c1cc(-c2cccc(-n3c4ccccc4c4ccccc43)c2)cc(-n2c3ccccc3c3ccccc32)c1): 28.1 ns

CCC1(CC)c2cc(-c3ccc4c(c3)C(CC)(CC)c3cc(C(C)(C)C)ccc3-4)ccc2-c2ccc(-c3ccc4c(c3)C(CC)(CC)c3cc(C(C)(C)C)ccc3-4)cc21
fluorescence lifetime (in CCCCC): 0.72 ns | fluorescence lifetime (in CCCCCC): 0.67 ns | fluorescence lifetime (in CCCCCCC): 0.67 ns | fluorescence lifetime (in CCCCCCCC): 0.7 ns | fluorescence lifetime (in CCCCCCCCC): 0.7 ns | fluorescence lifetime (in CCCCCCCCCC): 0.71 ns | fluorescence lifetime (in CCCCCCCCCCCC): 0.74 ns | fluorescence lifetime (in CCCCCCCCCCCCC): 0.76 ns | fluorescence lifetime (in CCCCCCCCCCCCCCC): 0.75 ns | fluorescence lifetime (in CCCCCCCCCCCCCCCC): 0.75 ns | fluorescence lifetime (in CCCCCCCCCCO): 0.8 ns | fluorescence lifetime (in CCCCCCCCCO): 0.74 ns | fluorescence lifetime (in CCCCCCCCO): 0.75 ns | fluorescence lifetime (in CCCCCCCO): 0.75 ns | fluorescence lifetime (in CCCCCCO): 0.76 ns | fluorescence lifetime (in CCCCCO): 0.76 ns | fluorescence lifetime (in CCCCO): 0.78 ns | fluorescence lifetime (in CCCO): 0.8 ns | fluorescence lifetime (in CCO): 0.8 ns | fluorescence lifetime (in CO): 0.78 ns

N#Cc1ccc(-c2cc(-c3ccc(N4CCCC4)cc3)nc(-c3ccccc3)n2)cc1
fluorescence lifetime (in ClC(Cl)Cl): 3.3 ns

NNC(=O)N1C(=O)c2cc(S(=O)(=O)[O-])cc3c(N)c(S(=O)(=O)[O-])cc(c23)C1=O
fluorescence lifetime (in O): 5.7 ns

N#Cc1cccc2ccccc12
fluorescence lifetime (in C1CCCCC1): 15.9 ns | fluorescence lifetime (in C1CCOC1): 11 ns | fluorescence lifetime (in CCCCCCC): 17.7 ns | fluorescence lifetime (in CCCCOC(C)=O): 12.9 ns | fluorescence lifetime (in CCCOC(C)=O): 12.8 ns | fluorescence lifetime (in CCOC(C)=O): 11.9 ns | fluorescence lifetime (in CCOCC): 13.7 ns | fluorescence lifetime (in Cc1ccccc1): 12.8 ns

CC1=[N+]2C(=C(c3ccccc3)c3ccc(/C=C/c4ccc(C(=C(c5ccccc5)c5ccccc5)c5ccccc5)cc4)n3[B-]2(F)F)C=C1
fluorescence lifetime (in C1CCOC1): 5.43 ns

CC1(C)C(=O)C=Cc2ccc(O)cc21
fluorescence lifetime (in O): 2.45 ns

CCCCC(CC)CN1C(=O)c2cc(Oc3ccc(OC)cc3)c3c4c(Cl)cc5c6c(cc(Cl)c(c7c(Oc8ccc(OC)cc8)cc(c2c37)C1=O)c64)C(=O)N(c1c(C(C)C)cccc1C(C)C)C5=O (stereo not drawn)
fluorescence lifetime (in Cc1ccccc1): 0.56 ns

Cc1ccc2ccc3cccc4ccc1c2c34
fluorescence lifetime (in CCCCCC): 67.8 ns | fluorescence lifetime (in CO): 132 ns | fluorescence lifetime (in ClCCl): 79.1 ns

C(=C\c1ccc(-n2c3ccccc3c3ccccc32)cc1)/c1ccc(-c2ccc(/C=C/c3ccc(-n4c5ccccc5c5ccccc54)cc3)cc2)cc1
fluorescence lifetime (in Cc1ccccc1): 0.87 ns | fluorescence lifetime [1]: 1.3 ns

COc1cc(/C=C/c2ccccc2)cc(OC)c1
fluorescence lifetime (in CC#N): 16.9 ns

c1ccc(-c2nc(-c3ccc(N4CCCC4)cc3)cc(-c3ccc4ccccc4c3)n2)cc1
fluorescence lifetime (in ClC(Cl)Cl): 2.4 ns

F[B-]1(F)OC(c2ccccc2)=Cc2cc3[n+](c[n+]21)[B-](F)(F)OC(c1ccccc1)=C3
fluorescence lifetime (in ClCCl): 1.4 ns

CC(C)c1cccc(C(C)C)c1N1C(=O)c2cc(Cl)c3c4c(Cl)cc5c6c(cc(Cl)c(c7c(Cl)cc(c2c37)C1=O)c64)C(=O)N(c1c(C(C)C)cccc1C(C)C)C5=O
fluorescence lifetime (in Cc1ccccc1): 5.11 ns

CCN(CC)c1ccc(-c2cc3c(s2)c(C(=O)OC)cc(=O)n3C)cc1
fluorescence lifetime (in ClCCl): 6.59 ns

FC(F)(F)c1ccc(/C=C/c2nc3c(ccc4ccccc43)s2)cc1
fluorescence lifetime (in C1CCCCC1): 0.75 ns | fluorescence lifetime (in CC#N): 0.84 ns

N#Cc1cc(N2c3ccccc3Oc3ccccc32)c(N2c3ccccc3Oc3ccccc32)cc1C#N
fluorescence lifetime [1]: 20 ns

F[B-]1(F)OC(c2ccc(C(F)(F)F)cc2)=Cc2c3ccccc3cc[n+]21
fluorescence lifetime (in ClC(Cl)Cl): 0.14 ns

CCC1(CC)c2ccccc2-c2c1c1c(c3c2C(CC)(CC)c2cc(B(c4c(C)cc(C)cc4C)c4c(C)cc(C)cc4C)ccc2-3)C(CC)(CC)c2ccccc2-1
fluorescence lifetime (in C1CCOC1): 3.2 ns

COC(=O)c1c(C(=O)OC)c2ccc(-c3ccccc3)nn2c1C
fluorescence lifetime (in CCCCCC): 21 ns

F[B-]1(F)OC(c2ccc(Br)cc2)=Cc2ccc3ccccc3[n+]21
fluorescence lifetime (in ClC(Cl)Cl): 1.21 ns

c1cc2c3c(c1)OCCCCCCOc1cccc(c1-c1c4ccccc4c-3c3ccccc13)OCCCCCCO2
fluorescence lifetime (in C1CCCCC1): 8.64 ns

CC(C)(C)c1ccc(-c2nc3c4ccc(-c5cc6ccccc6c6ccccc56)cc4c4cc(-c5cc6ccccc6c6ccccc56)ccc4c3n2-c2ccc(C(C)(C)C)cc2)cc1
fluorescence lifetime (in ClCCl): 7 ns

F[B-]1(F)n2c(/C=C/c3ccc(C(=C(c4ccccc4)c4ccccc4)c4ccccc4)cc3)ccc2C(c2ccc(C(=C(c3ccccc3)c3ccccc3)c3ccccc3)cc2)=C2C=CC(/C=C/c3ccc(C(=C(c4ccccc4)c4ccccc4)c4ccccc4)cc3)=[N+]21
fluorescence lifetime (in C1CCOC1): 3.89 ns

c1ccn(-c2ccc(-c3cc(-c4ccc(-n5cccc5)cc4)cc(-c4ccc(-n5cccc5)cc4)c3)cc2)c1
fluorescence lifetime (in ClCCl): 2.98 ns

Cc1c(C)c(B(c2c(C)c(C)c(N3c4ccccc4Oc4ccccc43)c(C)c2C)c2c(C)c(C)c(N3c4ccccc4Oc4ccccc43)c(C)c2C)c(C)c(C)c1C#N
fluorescence lifetime (in c1ccc([Si](c2ccccc2)(c2ccc(-n3c4ccccc4c4ccccc43)cc2)c2ccc(-n3c4ccccc4c4ccccc43)cc2)cc1): 18 ns

Cc1ccc(C2=Cc3ccc4ccccc4[n+]3[B-](F)(F)O2)cc1
fluorescence lifetime (in ClC(Cl)Cl): 1.79 ns

O=S(=O)(c1ccc(N2c3ccccc3N(c3ccccc3)c3ccccc32)cc1)c1ccc(N2c3ccccc3N(c3ccccc3)c3ccccc32)cc1
fluorescence lifetime (in Cc1ccccc1): 5.6 ns | fluorescence lifetime [2]: 10 ns

N#C[Se]CCCCCOc1ccc2ccc(=O)oc2c1
fluorescence lifetime (in C1CCCCC1): 0.16 ns | fluorescence lifetime (in C1CCOC1): 1.17 ns | fluorescence lifetime (in C1COCCO1): 0.17 ns | fluorescence lifetime (in CC#N): 0.56 ns | fluorescence lifetime (in CCCCCCC): 0.16 ns | fluorescence lifetime (in CCO): 0.43 ns | fluorescence lifetime (in CN(C)C=O): 1.02 ns | fluorescence lifetime (in CO): 0.44 ns | fluorescence lifetime (in O): 1.75 ns | fluorescence lifetime (in OCCO): 1.46 ns
